Series [1] has as its system Bhas 42 cell line. The experiment in a line: Bhas 42 cell transformation assay (carcinogenesis). The format is cell-based. On the procedure: This assay was carried out by adapting the in vitro Bhas 42 cell transformation assay method described in the OECD Guidance Document No. 231 ([2017]) based on the work of Sasaki et al. ([2014]).
It consists of two assays with a different test compound addition schedule to identify compounds with initiating activity (tumour initiators) or promoting activity (tumour promoters). Previously, a cell growth assay for 7 days is performed to set the assay doses of the CTA and another cell growth assay is concurrently performed to the CTA to verify that the selected doses meet the acceptance criteria for the tests.
The carcinogenesis potential of the compound was assayed by means of measuring the frequency of transformed foci (morphologically altered cells that form discrete anchorage-independent colonies) in the Bhas 42 cell line, which can be extrapolated to an assessment of carcinogenic potential. In the transformation assay, the incubation of compounds with two different treatment schedules allowed to identify the initiating or promoting carcinogenic potential of the compounds.

For series [2], the system named is CHO-K1 (Chinese hamster ovary cells). Type of series: cell-based. Particulars: 6 h with or without S9, 24 h without S9. On the procedure:
The in vitro micronucleus test is a genotoxicity test for the detection of micronuclei in the cytoplasm of interphase cells. Tests were conducted in the presence of the cytokinesis blocker cytochalasin B with three different treatment schedules: (i) short treatment for 6 h; (ii) short treatment for 6 h in the presence of an exogenous source of metabolic activation (cofactor supplemented S9 liver fraction); and (iii) extended treatment for 24 h.
CHO-K1 (Chinese hamster ovary cells, ATCC Item Number CCL-61) were cultured in DMEM F-12 containing 10% foetal bovine serum and 100 units/ml penicillin/100 μg/ml streptomycin (all from Sigma-Aldrich, St Louis, USA). Cells were seeded at 3000 cells/well in a collagen-coated 96-well plate in 100 μl. After 24 h, cells were incubated with CellTracker Orange CMTMR cellular dye solution (Invitrogen, Waltham, USA) for 1 h. Cells were then treated with compounds for 6 h, with or without S9 metabolic activation, or 24 h without S9 metabolic activation. […] After the 6-h compound treatment, cells were incubated with cytochalasin B (Alfa Aesar, Kandel, Germany) for 24 h. In case of 24-h treatment, cells were incubated with compounds in the presence of cytochalasin B and harvested after treatment. Benzo(a)pyrene, mitomycin C, and colchicine were used as positive controls for 6 h, with or without metabolic activation or 24 h treatments, respectively. […] After several washes with BupH-modified DPBS, cells were analysed in an Operetta High-Content Imaging System (PerkinElmer, Waltham, USA). […] Statistical significance was determined with the ANOVA test with significance level adjusted to p < 0.05.

The test system of series [3] is zebrafish embryos. An excerpt:
In REACH, most of the mammalian tests for chemical safety assessment are related to reproductive toxicity (ECHA [2020]; Rovida and Hartung [2009]; Sellick [2011]) and consider complex molecular and cellular mechanisms determined in long-term experiments with very low throughput. To avoid the use of animals and to assay reproductive toxicity in a relevant 'non-animal' model adhering to the 3Rs rule, we used zebrafish embryos up to 120 hpf. Up to this developmental stage, the embryos are not considered animals according to European legislation (Sellick [2011]). When they reach the stage of independent feeding, zebrafish embryos become subject to regulations for animal experimentation. We performed a set of previously described experiments to cover a wide range of potential reprotoxic effects, including terato-carcinogenesis, developmental neurotoxicity, and endocrine disruption.
Zebrafish embryos obtained and maintained as described previously for toxicity determination were used to determine (I) terato-carcinogenesis assayed as previously informed (Selderslaghs et al. [2009], [2012]) with modifications. In brief, embryos were incubated for 0 hpf up to 120 hpf in the presence and absence of tested compounds. Each condition was assayed in triplicate with 12 embryos per condition per replicate. The appearance of selected characteristics and malformations with respect to normal development were quantified for the eyes, otoliths, heart, circulation, hatching, skeletal deformities, and body position. For each concentration tested, we assessed the mortality and the presence of malformations at 24, 48, 72, 96, and 120 hpf using a light microscope. When possible, the lethal effects (LC50) and terato-carcinogenic effects (EC50) were determined using the ToxRat software. Based on these values, a teratogenic index (TI) was calculated as LC50/EC50. Based on previous studies, we considered a compound to be a teratogen when TI > 2 at 120 hpf. When no TI could be calculated due to no malformations induction to a degree extensive enough to calculate the EC50 in the presence of high toxicity, the compound was considered a non-teratogen. (II) Neurotoxicity was assayed by evaluating the locomotor activity in embryos exposed to the tested compounds from 0 to 120 hpf using Zebrabox and Zebralab (ViewPoint). We tested three concentrations (24 embryos per concentration) below the NOEC to avoid readily toxic concentrations. After incubation with tested compounds for 120 hs in 96-well plates, the activity of larvae in response to transitions from dark to light was evaluated. The protocol involved an initial 10 min acclimation period inside the Zebrabox, followed by three cycles of light–dark of 10 min each. After the end of each cycle, the integrated activity of each embryo was registered. Statistical analysis was done using ANOVA, followed by the Tukey post hoc test. Differences were considered significant when p < 0.05. Dead embryos were not considered in the analysis. (III) The endocrine-disrupting effect in zebrafish embryos was assayed by real-time PCR as previously reported (Jarque et al. [2019]) with modifications. In brief, 0 hpf embryos (12 embryos per condition in triplicate) were incubated with selected compounds for up to 120 hpf. After incubation, treated (embryos incubated at the concentration right below the NOEC) and control embryos were collected in RNA later and kept at − 20°C until use. RNA was extracted from the samples using the RNeasy Mini Kit (QIAGEN) and was followed by cDNA synthesis using random primers and the AffinityScript Multi Temperature cDNA Synthesis Kit (Agilent Technologies).

The mark [4] stands for this setting: significant increase in foci frequency in at least two sequential concentrations.
The mark [5] stands for this setting: 0 to 120 hpf, teratogen when TI > 2.

Where two headings read alike, the source gives them in different places.

As for `CCCCC(CC)CN` (stereo not drawn) [2-Ethylhexylamine], the “Carcinogen (C)” value in series [1] is “Yes”. Also, the “Micronucleus assay (M)” value in series [2] was “Negative”. For the same molecule, the “Reprotoxicity (R) Teratogen” value in series [3] (in vivo) was “No”.

Consider `CNC(=O)c1cc(Cl)ccn1.Cl` [4-Chloro-N-methylpyridine-2-carboxamide hydrochloride (1:1)], for which the “Carcinogen (C)” value in series [1] is “No”. In series [2], the “Micronucleus assay (M)” value is on record as “Negative”. In series [3] (in vivo), the “Reprotoxicity (R) Experimental conclusion” value is “No” and the “Reprotoxicity (R) Teratogen” value was “No”.

Consider `CCN(CC)c1ccc(N=Nc2c(Cl)cc([N+](=O)[O-])cc2[N+](=O)[O-])c(NC(C)=O)c1` [N-[2-[(2-chloro-4,6-dinitrophenyl)azo]-5-(diethylamino)phenyl]acetamide], for which the “Carcinogen (C)” value in series [1] (setting [4]) was “Yes”. Further, the “Micronucleus assay (M)” value in series [2] is given as “Negative”. Moreover, the “Reprotoxicity (R) Teratogen” value in series [3] (setting [5]) is recorded as “No”.

Take `O=C(OCCc1ccccc1)c1ccccc1` [Phenethyl benzoate]: in series [1], the “Carcinogen (C)” value is “No”. The “Micronucleus assay (M)” value in series [2] is on record as “Negative”. In series [3] (in vivo), the “Reprotoxicity (R) Experimental conclusion” value is listed as “No” and the “Reprotoxicity (R) Teratogen” value was “No”.

For “Reaction mass of cis-4-(isopropyl) cyclohexanemethanol and trans-4-(isopropyl) cyclohexanemethanol”, the “Carcinogen (C)” value in series [1] (setting [4]) is listed as “Yes”. Besides, the “Micronucleus assay (M)” value in series [2] was “Negative”. Besides, in series [3] (setting [5]), the “Reprotoxicity (R) Teratogen” value is reported as “No”. The “Reprotoxicity (R) Experimental conclusion” value in series [3] (positive in any of the three assays) is reported as “No”.

Values taken from paper PMC10025185, “A continuous in silico learning strategy to identify safety liabilities in compounds used in the leather and textile industry” (Archives of Toxicology, 2023).
